Experimental data as given in patent US5747504A, “Method of treating cardiac insufficiency using angiotensin-converting enzyme inhibitors” (priority 1984, dated 1998).

What was measured:
Assay type in all cases: in vivo
ACE in the heart = assay: Inhibition of ACE in the heart after oral treatment of spontaneously hypertensive rats
Protocol: It is known that converting enzyme inhibitors are capable of inhibiting the enzyme not only in the serum but also in various tissues, and especially also in the heart.
In contrast, with 30 mg/kg of N-(1-carbethoxy-3-phenyl-propyl)-S-alanyl-S-proline (enalapril) perorally, already no further significant inhibition is observed after more than 6 hours.

isolated heart [1] = assay: Effect of angiotensin I and bradykinin on coronary blood flow in the isolated heart after oral pretreatment; conditions: isolated heart of rabbits, guineapigs and rats
Protocol: Angiotensin I decreases whilst bradykinin increases the coronary blood flow in the isolated heart of rabbits, guineapigs and rats. […] The same effect can only be achieved with 30 mg/kg of enalapril.

isolated heart [2] = assay: Postganglionic sympathetic stimulation on the isolated heart after oral pretreatment; conditions: oral pretreatment with 1 mg/kg perorally, rabbits
Description: Postganglionic sympathetic stimulation on the isolated heart leads, via increased catecholamine release, to an increase in heart rate and contractility and to a decrease in coronary blood flow. […] These effects act together to protect the incompetent heart.

[3] = oral pretreatment with 1 mg/kg perorally

Row | Compound | duration of significant inhibition of the ACE in the heart (ACE in the heart; 30 mg/kg perorally) [h] | inhibition of the ACE in the heart at the end of treatment (ACE in the heart; chronic oral treatment for two weeks with 30 mg/kg perorally) | action of bradykinin on coronary blood flow (isolated heart [1]; 30 mg/kg) | effect of angiotensin I on coronary blood flow (isolated heart [1]; 30 mg/kg) | inhibition of the ACE in the heart at the end of treatment (ACE in the heart; chronic oral treatment for two weeks with 1 mg/kg) [%] | duration of significant inhibition of the ACE in the heart (ACE in the heart; single oral dose of 1 mg/kg) [h] | action of bradykinin on coronary blood flow (isolated heart [1]; [3]) | effect of angiotensin I on coronary blood flow (isolated heart [1]; [3]) | influence of postganglionic sympathetic stimulation on contractility (isolated heart [2]) | influence of postganglionic sympathetic stimulation on coronary blood flow (isolated heart [2]) | influence of postganglionic sympathetic stimulation on heart rate (isolated heart [2])
1 | CCOC(=O)[C@H](CCc1ccccc1)N[C@@H](C)C(=O)N1CCC[C@H]1C(=O)O [enalapril, N-(1-carbethoxy-3-phenyl-propyl)-S-alanyl-S-proline, reference compound] | ≤ 6 | no inhibition is observed | same effect | same effect |  |  |  |  |  |  | 
2 | CCOC(=O)[C@H](CCc1ccccc1)N[C@@H](C)C(=O)N1[C@H](C(=O)O)C[C@@H]2CCC[C@@H]21 [compound of the formula II, N-(1-S-carbethoxy-3-phenyl-propyl)-S-alanyl-cis-endo-2-azabicyclo[3,3,0]octane-3-S-carboxylic acid] |  |  |  |  | 55 | > 24 | increases | significantly reduces | unaffected | significantly reduces | significantly reduces
